Experiment: log P by HPLC on reversed-phase column (C18), EEC Directive 79/831 Annex V.A8
Type: physicochemical
Conditions: Method A: 40° C., 0.1% aqueous formic acid and acetonitrile
Method: In table 1, the log P values were determined in accordance with EEC Directive 79/831 Annex V.A8 by HPLC (High Performance Liquid Chromatography) on a reversed-phase column (C18), using the methods described below:
Method A: temperature: 40° C.; mobile phases: 0.1% aqueous formic acid and acetonitrile; linear gradient from 10% acetonitrile to 95% acetonitrile;
Method B: temperature: 40° C.; mobile phases: 0.001 molar ammonium acetate solution in water and acetonitrile; linear gradient from 10% acetonitrile to 95% acetonitrile.
Calibration was carried out using unbranched alkan-2-ones (comprising 3 to 16 carbon atoms) with known log P values (determination of the log P values by the retention times using linear interpolation between two successive alkanones). lambda-max-values were determined using UV-spectra from 200 nm to 400 nm and the peak values of the chromatographic signals.
For C[Si](C)(C)c1c(F)cccc1Oc1cc2ccccc2nc1C(F)F [I.065], the logP was 5.45.
In the case of CC[Si](C)(C)c1c(F)cccc1Oc1cnc2ccccc2c1 [I.005], the logP is reported as 5.47.
C[Si](C)(C)c1c(F)cccc1C(O)c1cnc2ccccc2c1 (centres unmarked) [I.133] gave a logP of 4.16.
COc1ccc([Si](C)(C)c2c(F)cccc2Oc2nc3ccccc3nc2C)cc1 [I.114] gave a logP of 5.35.
C[Si](C)(O)c1ccccc1Oc1cnc2c(F)c(F)ccc2n1 [I.081] showed a logP of 3.23.
In the case of Cc1c(Cc2ccccc2[Si](C)(C)C)cnc2ccccc12 [I.130], the logP is reported as 3.19.
Compound Cc1nc2c(F)c(F)ccc2cc1Oc1cccc(F)c1[Si](C)(C)O [I.025] has a logP of 3.55.
In the case of C[Si](C)(C)c1c(F)cccc1Sc1cnc2ccccc2c1 [I.131], the logP is reported as 5.72.
Compound C[Si](C)(C)c1c(F)cccc1Oc1cc2ccccc2nc1-c1ccsc1 [I.067] has a logP of 6.66.
C[Si](C)(O)c1c(F)cccc1Oc1cnc2ccccc2c1 [I.003] gave a logP of 2.90.
With C[Si]1(c2ccccc2)c2c(F)cccc2Oc2c(Cl)nc3ccccc3c21 (centres unmarked) [6-chloro-11-fluoro-12-methyl-12-phenyl-12H-[1,4]benz-oxasilino[2,3-c]quinoline] the logP was 5.94.
Work on Cc1nc2c(F)c(F)ccc2nc1Oc1ccc(Cl)cc1[Si](C)(C)O [I.102] yielded a logP of 4.01.
In the case of Cc1nc2ccccc2cc1Nc1ccccc1[Si](C)(C)C [I.054], the logP is reported as 2.46.
Cc1nc2c(F)c(F)ccc2nc1Oc1ccccc1[Si](C)(C)C [I.086] gave a logP of 5.46.
Cc1nc2c(F)c(F)ccc2cc1Oc1cccc(F)c1[Si](C)(C)c1cccs1 [I.030] gave a logP of 5.65.
CC[Si](C)(C)c1c(F)cccc1Oc1cc2ccccc2nc1C [I.052] showed a logP of 5.62.
C[Si](C)(C)c1ccccc1Oc1cnc2c(F)c(F)ccc2c1 [I.020] showed a logP of 5.39.
For Cc1nc2ccccc2nc1Oc1cccc(F)c1[Si](C)(C)c1ccccc1 [I.115], the logP was 5.59.
For C[Si](C)(O)c1ccccc1Oc1cnc2nccn2c1 [I.125], the logP was 2.10.
For CCN(c1ccccc1[Si](C)(C)C)c1cc2ccccc2nc1C [I.056], the logP was 3.16.
Compound C[Si](C)(c1ccccc1)c1ccccc1Cc1cnc2ccccc2c1 [I.013] has a logP of 4.20.
Cc1ccc([Si](C)(C)O)c(Oc2nc3ccc(F)c(F)c3nc2C)c1 [I.097] showed a logP of 3.76.
For C[Si](C)(O)c1cc(F)ccc1Oc1cnc2c(Cl)cccc2c1 [I.018], the logP was 3.50.
C[Si](C)(O)c1c(F)cccc1Oc1cnc2c(F)cnn2c1 [I.127] showed a logP of 2.60.

Same assay, conditions: logP Method A
With O=[N+]([O-])c1ccccc1Oc1cnc2ccccc2c1 [Va.07] the logP was 1.62.
Compound Cc1nc2ccccc2cc1Oc1cccc(F)c1N [IVa.02] has a logP of 2.15.
Compound Cc1nc2c(F)c(F)ccc2nc1Oc1cccc(OC(F)(F)F)c1Br [IIb.23] has a logP of 5.08.
Compound C[Si](C)(c1ccccc1)c1ccccc1CBr [XIa.03] has a logP of 5.46.
In the case of O=[N+]([O-])c1ccccc1Oc1cnc2c(F)c(F)ccc2c1 [Va.03], the logP is reported as 3.06.
Work on CSc1nc2ccccc2cc1Oc1cccc(F)c1 [VIIa.03] yielded a logP of 4.92.
In the case of Cc1ccc(Oc2nc3ccc(F)c(F)c3nc2C)c(Br)c1 [IIb.09], the logP is reported as 4.92.
Compound Cc1nc2c(F)c(F)ccc2cc1Oc1cccc(F)c1N [IVa.06] has a logP of 3.27.

Same assay, conditions: logP Method B
For CC[Si](C)(C)c1ccccc1O [IXa.04], the logP was 3.90.

Same assay, conditions: reversed-phase HPLC column (C18), Method A: 40° C., 0.1% aqueous formic acid and acetonitrile
Work on CC(=O)COc1ccccc1[Si](C)(C)C [XIV.01, 1-[2-(trimethylsilyl)phenoxy]acetone] yielded a chromatographic logP of 1.39.
For Cc1nc2ccccc2cc1Oc1ccc(Cl)cc1Br [IIa.26, 3-(2-bromo-4-chlorophenoxy)-2-methylquinoline], the chromatographic logP was 4.13.
With Cc1nc2c(F)c(F)ccc2cc1Oc1cccc(Cl)c1Br [IIa.20, 3-(2-bromo-3-chlorophenoxy)-7,8-difluoro-2-methylquinoline] the chromatographic logP was 4.72.
With C[Si](C)(c1ccc(Cl)cc1)c1ccccc1Cc1cnc2ccccc2c1 [I.014, 3-{2-[(4-chlorophenyl)(dimethyl)silyl]benzyl}quinoline] the chromatographic logP was 4.74.

Same assay, conditions: reversed-phase HPLC column (C18), logP Method A
CC(=O)COc1ccccc1[Si](C)(C)C [XIV.01, 1-[2-(trimethylsilyl)phenoxy]acetone] gave a chromatographic logP of 1.39.
